# Assay results published in US20140187507A1, “TREATMENT OF PARKINSONS DISEASE WITH GLYCOLIPIDS” (Rutgers, The State University of New Jersey, priority 2012, published 2014).
# Entries after “also recorded” stand apart in the source; their conditions may differ.
# What was measured:
# [1] = system: GM1 deficient mice (HT, KO); test: Rescue of striatal dopamine levels and dopaminergic cells in the GM1 deficient mouse (IHC of SNpc); format: in vivo; conditions: HT mice 200 days old, 2.5 mg/Kg, 3x/wk, ip, 5 weeks, vs saline
# Procedure: FIG. 3. Reversal of PD neuropathology by GM1 replacement. HT mice (200 days old) were treated with saline or compound XVIII (2.5 mg/Kg; 3×/wk, ip) over 5 weeks.
# Heterozygote mice (200 days old, DOA) were treated with saline or analog XVIII (2.5 mg/Kg; 3×/wk, IP) over 5 weeks.
# [2] = system: GM1 deficient mice (HT, KO); test: Motor function in GM1 deficient mice (grip duration, irritant removal, pole climbing); format: in vivo, mouse; conditions: HT mice 200 DOA
# Procedure: FIG. 4. […] Grip duration (a) and irritant removal (b) were tested in mice at 200 DOA before and after IP injection of L-DOPA.
# FIG. 5. […] Mice (200 DOA) were treated IP with saline or compound XVIII (2.5 mg/Kg; 3×/wk) over 5 weeks. (a) grip duration; (b) irritant removal; (c) pole climbing.
# HT mice (200 DOA) were treated with saline or analog XVIII (2.5 mg/Kg; 3×/wk; IP) over 5 weeks.
# HT GM1 deficient mice = test: Cognitive function in GM1 deficient mice, T-maze test; format: in vivo, mouse; conditions: 4 wks dosing, 4 mice/group, saline control
# Procedure: FIG. 6. […] T-maze test: 4 wks dosing with GM1 analog XVIII; 4 mice/group; age as indicated. The rate of alternation is a statistical plot as 0.5 (pure chance) to 1.0 (perfect score). Saline was administered as control.
# HT and KO mice in two age groups were evaluated for cognitive function with the T maze test (FIG. 6).
# [3] = system: RET phosphorylation (RET-p); test: RET phosphorylation in GM1 deficient mice, IHC with anti-RET-P and anti-TH; format: in vivo, mouse
# Excerpt: FIG. 8. GM1 replacement restores normal RET phosphorylation (RET-p) from subnormal state in GM1 deficient mice.
# [4] = system: NG-CR72 cells lacking GM1; test: Spontaneous alpha-synuclein aggregation in differentiated cells deficient in GM1; format: cell-based; conditions: 1 μM; cells differentiated with db-cAMP/KCl
# Excerpt: FIG. 9. Spontaneous formation of alpha-synuclein aggregates in cells deficient in GM1.
# [5] = system: NG108-15 neuroblastoma cells; test: Cell death and neurite outgrowth in MPP-treated differentiated neuroblastoma cells; format: cell-based
# Excerpt: FIG. 12. GM1 replacement therapy reduces cell death and increases neurite outgrowth. NG108-15 neuroblastoma cells were differentiated for 7 days with db-cAMP/KCl, then treated 2 days with MPP and indicated compound for 2 days. […] LIGA-20 is GM1 analog XVIII and compound 6 is analog XXXVII/XXXVIII.
# MPTP-treated mice = test: Rescue of striatal dopamine levels and dopaminergic cells in MPTP-treated mice; format: in vivo, C57B1/6 mice; conditions: once daily for 3 weeks after MPTP; GM1 30 mg/kg IP; analogs 2, 3, 4, 6, LIGA20 at 0.3 or 30 mg/Kg IP or 30 mg/Kg PO (FIG. 10)
# Procedure: FIG. 10. GM1 analogs increase dopamine and TH+ cell numbers in the SNpc of MPTP treated mice. All agents administered once daily (I.P. or P.O.) for 3 weeks following MPTP treatment. (a) GM1 (1; 30 mg/Kg; IP), analog (3, 4 and 6; 0.3 mg/Kg; IP). (b) LIGA20 (2; 30 mg/Kg), analogs (2, 3 and 6; 30 mg/Kg; IP). (c) analogs (4 and 6; 30 mg/Kg; PO). (d) TH+IHC of the SNpc after treatment with saline or analog (6) (30 mg/Kg; PO) C=saline control. I and II are two separate experiments. Compound 2 is (XXIX/XXX), compound 3 is (XXVII/XXVIII), compound 4 is (XXXI/XXXII), compound 6 is (XXXVIII/XXXVII). LIGA20 is (XVIII).
# C57B1/6 mice 7-8 weeks of age were treated with MPTP (b.i.d., 20 mg/kg, s.c.). The mice also receive a daily administration of saline, GM1 (30 mg/kg), or a compound of the invention (0.3 to 3 mg/kg, i.p. and 30 mg/kg os) for three weeks starting 24 h after the last MPTP injection. The brains were removed and analyzed for striatal dopamine levels. The midbrain were fixed for TH immunohistochemistry and dopamine neuron cell counts.
# rat cortical cells = test: Protection of cortical cells from apoptosis (hydrogen peroxide, MTT assay); format: cell-based; conditions: 50 μM hydrogen peroxide, FIG. 11
# Procedure: To induce apoptosis, rat cortical cells were cultured and treated with 50 μM hydrogen peroxide for three hours prior to being treated with the ganglioside analogue. The cells were also treated with the hydrogen peroxide during treatment with the ganglioside analogue and post-treatment for 48 h. Cell death was assayed using the MTT assay.
# [6] = system: Parkinson's disease patients; conditions: peripheral subcutaneous administration for 5 years; cited from earlier work
# [7] = peripheral subcutaneous administration; cited from earlier work
# [8] = 1 μM, differentiated 7 days with db-cAMP/KCl, MPP and compound 2 days
compound,measurement,setting,value
CCCCCCCCCCCCC/C=C/[C@@H](O)[C@H](CO[C@@H]1OC(CO)[C@@H](O[C@@H]2OC(CO)[C@H](O[C@@H]3OC(CO)[C@H](O)[C@H](O[C@@H]4OC(CO)[C@H](O)[C@H](O)C4O)C3NC(C)=O)[C@H](O[C@]3(C(=O)O)C[C@@H](O)[C@@H](NC(C)=O)C([C@H](O)[C@H](O)CO)O3)C2O)[C@H](O)C1O)NC(=O)C(Cl)Cl (some centres unmarked) [compound XVIII],TH+ dopaminergic neuron number in SNpc,[1],increase in TH+ dopaminergic cells; also recorded: neuron number increase
same,striatal dopamine (DA) levels,[1],elevation of striatal dopamine; also recorded: DA levels increase
same,αSyn aggregates in TH+ cells of SNpc,[1],reduction of αSynuclein; also recorded: αSyn aggregates decrease
same,"motor function (grip duration, irritant removal, pole climbing tests)","[2]; 2.5 mg/Kg, 3x/wk, IP, 5 weeks, vs saline, 2.5 mg/kg",significantly improved motor function; also recorded: improves motor function
same,"cognitive function, T-maze rate of alternation",HT GM1 deficient mice,improves cognitive function
same,RET phosphorylation (RET-p),[3]; HT mice (low GM1),significantly elevated
same,RET phosphorylation (RET-p),[3]; KO mice (no GM1),significantly elevated
same,αSyn-aggregation (FITC-anti-αSyn antibody staining),[4],suppressed
same,% of cells with neurites,[5]; [8],similarly improved
same,relative cell number,[5]; [8],significantly improved
GM1,striatal dopamine levels,MPTP-treated mice,increased striatal dopamine levels
same,protection of cells from apoptosis,rat cortical cells,provided protection of the cells from apoptosis
same,% of cells with neurites,[5]; GM1 at 100 μM,similarly improved
same,relative cell number,"[5]; GM1 at 100 μM, compared with LIGA-20 and compound 6 at 1 μM",equivalent
same,progression of motor function loss,[6],slowed the progression of motor function loss
same,share of the administered dose able to penetrate the brain,[7],less than 1%
"N[C@@H](Cc1ccc(O)c(O)c1)C(=O)O [L-DOPA, reference compound]","motor deficits (grip duration, irritant removal)",[2]; before and after IP injection of L-DOPA,alleviates motor deficits
